Measurements reported in PubChem BioAssay AID2060500 (Molecular Pharmacology Branch, DTP, NCI, 2025).

Tested on: 596521-263-R-J1-PDC complex spheroids, viability % of control
Experiment: Anticancer human tumor 596521-263-R-J1-PDC patient-derived soft tissue sarcoma cell line growth inhibition [GQUAD]
Details: for IC50: curve of first compound; for viability, T/C: stronger effect = lower value; active = viability on the fitted dose curve at most 10% of control; inactive = the rest
Description: DNA G-quadruplex Stabilizer Agents in Combinations in Complex Spheroids
A high-throughput screen of multi-cell type tumor spheroids was designed to identify active combinations of DNA G-quadruplex stabilizer agents and targeted small molecules. Complex spheroids include a stromal component modeled by human endothelial cells (HUVEC) and fibroblasts modeled by human mesenchymal stem cells (MSCs). The concentration ranges selected for each drug and investigational agent were based upon clinically achievable concentrations if the clinical Cmax of the agent was known.
Compounds. The drugs and investigational agents: pidnarulex (CX-5461; NSC782164), APTO-253 (NSC789042), BRACO-19 (NSC847499), peposertib (NSC802822), ceralasertib (NSC780249), elimusertib (NSC800525), camonsertib (NSC841442), AZD-1390 (NSC803789), olaparib (NSC753686), talazoparib (NSC767125), ART-558 (NSC835418), sotorasib (NSC818433), MRTX-1133 (NSC836407), SN-38 (NSC673596), topotecan (NSC609699), etoposide (NSC141540), doxorubicin (NSC123127), gemcitabine (NSC613327), 5-fluorouracil (NSC19893), paclitaxel (NSC125973), vemurafenib (NSC761431), panobinostat (NSC761190), R-306465 (JNJ-16241199; NSC773264), adavosertib (NSC754352), TP-3654 (NSC805149), carboplatin (NSC241240), KSQ-4279 (NSC840948), and staurosporine (NSC755774) were obtained from the National Cancer Institute (NCI) Developmental Therapeutics Program Chemical Repository (34). The FDA-approved anticancer drug set is available from the NCI Developmental Therapeutics Program. […] The stock solutions were prepared in dimethyl sulfoxide (DMSO, Sigma-Aldrich, St. Louis, MO, cat. D2650) at 800-fold the tested concentration and stored at -70 degrees C prior to their use. All drugs and investigational agents were tested over a range starting from a high concentration at or near the clinical Cmax and decreasing in half-log increments. If the clinical Cmax for an agent had not been determined, the highest concentration tested was 10 microM.
2.3 Cell Culture. All cells were maintained in an incubator at 37 degrees C and 5% CO2 with 95% humidity. The PDC lines were cultured according to standard operating procedures established by the NCI PDMR. All PDCs were thawed and cultured in Matrigel-coated flasks prepared with a working solution of 1X Ham's F-12 nutrient mix, without supplementation (Invitrogen, cat. 11765054), 100 U/mL penicillin-streptomycin (Invitrogen, cat. 15140122), and 2.5% Matrigel (Corning Inc., cat. 354248) for the first three passages. The 857933-349-R-J2-PDC line was cultured in 6C/Colon 1B media, which includes advanced DMEM/F-12 (Thermo Fisher Scientific, cat. 12634028), 10 mM HEPES (Thermo Fisher Scientific, cat. 15630080), 1X GlutaMAX supplement (Thermo Fisher Scientific, cat. 35050061), 0.1 mg/mL primocin (InvivoGen, cat. ant-pm-2), 10% defined fetal bovine serum, heat inactivated (HyClone Laboratories Inc., cat. SH30070.03HI), 50% L-WRN conditioned media (ATCC, cat. CRL-3276), 1.25 mM N-Acetyl-L-cysteine (Sigma-Aldrich, cat. A9165), 10 mM nicotinamide (Sigma-Aldrich, cat. N0636), 1X B-27 supplement (Thermo Fisher Scientific, cat. 17504044), 1X N-2 supplement (Thermo Fisher Scientific, cat. 17502048), 10 microM Y-27632 dihydrochloride (Tocris Bioscience, cat. 1254), and 50 ng/mL human EGF recombinant protein (Thermo Fisher Scientific, cat. PHG0311). The 485176-168-R4-J1-PDC line was cultured in Panc media, which includes all 6C/Colon 1B media components plus 100 ng/mL human FGF-10 (Thermo Fisher Scientific, cat. 100-26), 500 nM SB-431542 (Selleckchem, cat. S1067), and gastrin (Tocris, cat. 3006).
[…]

[1] = second compound 0.0316 µM, first compound 0.0316 µM
[2] = second compound 0.0316 µM, first compound 0.1 µM
[3] = second compound 0.0316 µM, first compound 0.316 µM
[4] = second compound 0.0316 µM, first compound 1 µM
[5] = second compound 0.0316 µM, first compound 3.16 µM
[6] = second compound 0.0316 µM, first compound 10 µM
[7] = second compound 0.1 µM, first compound 0.0316 µM
[8] = second compound 0.1 µM, first compound 0.1 µM
[9] = second compound 0.1 µM, first compound 0.316 µM
[10] = second compound 0.1 µM, first compound 1 µM
[11] = second compound 0.1 µM, first compound 3.16 µM
[12] = second compound 0.1 µM, first compound 10 µM
[13] = second compound 0.316 µM, first compound 0.0316 µM
[14] = second compound 0.316 µM, first compound 0.1 µM
[15] = second compound 0.316 µM, first compound 0.316 µM
[16] = second compound 0.316 µM, first compound 1 µM
[17] = second compound 0.316 µM, first compound 3.16 µM
[18] = second compound 0.316 µM, first compound 10 µM
[19] = second compound 1 µM, first compound 0.0316 µM
[20] = second compound 1 µM, first compound 0.1 µM
[21] = second compound 1 µM, first compound 0.316 µM
[22] = second compound 1 µM, first compound 1 µM
[23] = second compound 1 µM, first compound 3.16 µM
[24] = second compound 1 µM, first compound 10 µM
[25] = second compound 3.16 µM, first compound 0.0316 µM
[26] = second compound 3.16 µM, first compound 0.1 µM
[27] = second compound 3.16 µM, first compound 0.316 µM
[28] = second compound 3.16 µM, first compound 1 µM
[29] = second compound 3.16 µM, first compound 3.16 µM
[30] = second compound 3.16 µM, first compound 10 µM
[31] = second compound 10 µM, first compound 0.0316 µM
[32] = second compound 10 µM, first compound 0.1 µM
[33] = second compound 10 µM, first compound 0.316 µM
[34] = second compound 10 µM, first compound 1 µM
[35] = second compound 10 µM, first compound 3.16 µM
[36] = second compound 10 µM, first compound 10 µM
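Note: spheroids exposed to drugs for 7 days before viability reading.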

CC(C)(O)C1CCC(Nc2ccc3ncc(-c4cccc(C(F)(F)F)c4)n3n2)CC1 (centres undefined) + CN(C)c1ccc(Nc2c3ccc(NC(=O)CCN4CCCC4)cc3nc3cc(NC(=O)CCN4CCCC4)ccc23)cc1
1560 nM: IC50 (second compound 0.316 µM)
inactive: viability, T/C [1] 96.8% | viability, T/C [2] 97.3% | viability, T/C [3] 81.7% | viability, T/C [4] 65% | viability, T/C [5] 16.9% | viability, T/C [6] 19.1% | viability, T/C [7] 94.2% | viability, T/C [8] 84.5% | viability, T/C [9] 87% | viability, T/C [10] 61% | viability, T/C [11] 20.4% | viability, T/C [12] 21.6% | viability, T/C [13] 97% | viability, T/C [14] 113% | viability, T/C [15] 83.4% | viability, T/C [16] 70.5% | viability, T/C [17] 19.9% | viability, T/C [18] 20.2% | viability, T/C [19] 92.9% | viability, T/C [20] 95.9% | viability, T/C [21] 78.6% | viability, T/C [22] 75.5% | viability, T/C [23] 19.1% | viability, T/C [24] 24% | viability, T/C [25] 87.1% | viability, T/C [26] 97.3% | viability, T/C [27] 83.8% | viability, T/C [28] 66.4% | viability, T/C [29] 18.1% | viability, T/C [30] 24.2% | viability, T/C [31] 65.3% | viability, T/C [32] 61.7% | viability, T/C [33] 61.1% | viability, T/C [34] 49% | viability, T/C [35] 13.8% | viability, T/C [36] 13.1%
1520 nM: IC50 (second compound 3.16 µM)
915 nM: IC50 (second compound 10 µM)
1420 nM: IC50 (second compound 0.0316 µM)
1370 nM: IC50 (second compound 0.1 µM)
1720 nM: IC50 (second compound 1 µM)

CC1COCCN1c1cc(C2(S(C)(=N)=O)CC2)nc(-c2ccnc3[nH]ccc23)n1 (centres undefined) + CN(C)c1ccc(Nc2c3ccc(NC(=O)CCN4CCCC4)cc3nc3cc(NC(=O)CCN4CCCC4)ccc23)cc1
9590 nM: IC50 (second compound 0.1 µM)
inactive: viability, T/C [1] 93.1% | viability, T/C [2] 97.1% | viability, T/C [3] 86.9% | viability, T/C [4] 77.9% | viability, T/C [5] 62.9% | viability, T/C [6] 52.3% | viability, T/C [7] 97.5% | viability, T/C [8] 97.7% | viability, T/C [9] 95.1% | viability, T/C [10] 71.5% | viability, T/C [11] 64.8% | viability, T/C [12] 48% | viability, T/C [13] 96.6% | viability, T/C [14] 90.8% | viability, T/C [15] 87.3% | viability, T/C [16] 85.1% | viability, T/C [17] 54.2% | viability, T/C [18] 51.2% | viability, T/C [19] 90.4% | viability, T/C [20] 103% | viability, T/C [21] 94.1% | viability, T/C [22] 76.4% | viability, T/C [23] 64.3% | viability, T/C [24] 57.3% | viability, T/C [25] 94.5% | viability, T/C [26] 83.1% | viability, T/C [27] 78.2% | viability, T/C [28] 80% | viability, T/C [29] 61.4% | viability, T/C [30] 50% | viability, T/C [31] 66.8% | viability, T/C [32] 67.1% | viability, T/C [33] 65.6% | viability, T/C [34] 52.8% | viability, T/C [35] 53.8% | viability, T/C [36] 44.9%
4380 nM: IC50 (second compound 10 µM)
> 10000 nM: IC50 (second compound 0.0316 µM) | IC50 (second compound 0.316 µM) | IC50 (second compound 1 µM) | IC50 (second compound 3.16 µM)
